Reference: EP3244885B1, “LIPOIC ACID FOR TREATING OR PREVENTING THREATENED MISCARRIAGE OR PRETERM DELIVERY” (priority 2015, dated 2016)

Columns and labels:
[1] = test system: primigravid patients with subchorionic hematoma; assay: Randomized clinical trial, vaginal capsules of example 4 (10 mg ALA) vs. progesterone and untreated controls: reabsorption of subchorionic hematoma, pelvic pain, vaginal bleeding, abortions; format: in vivo, women; conditions: for Pel. pain, 2nd visit / Vaginal bleeding, 2nd visit: 20 days after the first visit; for Pel. pain, 2nd visit: ALA p ≤ 0.05 vs the other two groups; for Vaginal bleeding, 2nd visit: no significant differences between the three groups; for Pel. pain, visit upon enrolment / Vaginal bleeding, visit upon enrolment: share of patients with symptom at enrolment (baseline); for Improvement (%) mean ± st. error (resorption of the subchorionic hematoma): vaginal, ALA 10 mg/day or progesterone 400 mg daily, ALA p ≤ 0.05 vs progesterone and control groups
Procedure: Randomized trial, vaginal capsules of example 4 vs. progesterone and placebo Number of participants: […] (27 medical device, 27 progesterone, 22 placebo)
In primigravid patients between the 7th and 12th week of gestation, the trial had the following objective: • evaluating whether the administration of 10 mg ALA vaginally is associated with the reabsorption of the subchorionic hematoma.
Reduction or disappearance of: • pelvic pain • vaginal bleeding
• Women aged 20-40 • Primigravid between 7th e and 12th weeks of gestation • Presence of pelvic pain • With or without moderate vaginal bleeding • Presence of the subchorionic hematoma detected by ultrasound
(§1) • Absence of the fetus • Absence of heartbeat • Presence of uterine abnormalities • Presence of fetal abnormalities • Presence of multiple pregnancies • Presence of pre-pregnancy or gestational abnormalities • Diagnosis of allergic reaction to progesterone • Presence of ongoing therapies with anticoagulants or antihypertensives • Presence of karyotypic abnormalities
The women enrolled to be treated with ALA or progesterone were randomized into 2 groups: • 27 were administered with vaginal capsules containing 10 mg ALA 1 per day until resolution of the clinical condition • 27 were administered with vaginal capsules containing 400 mg progesterone daily.
The women in the control group were those who refuse any medical treatment.
(§2) Three visits were scheduled: • 1) Enrolment • 2) 20 days after the first visit • 3) 60 days after the first visit
In each visit, a "blinded" operator carried out the ultrasound examination to evaluate the subchorionic hematoma and the subjective (pelvic pain) and objective (vaginal bleeding) symptoms were recorded.

[2] = test system: primigravid patients with threat of spontaneous abortion; format: in vivo, women; conditions: 60 patients per group, vaginal, ALA 10 mg/day or progesterone 400 mg daily, p ≤ 0.05; for Absence of symptoms: post treatment
Procedure: Randomized trial, vaginal capsules of example 4 vs. progesterone and placebo Number of participants: 120 (60 medical device, 60 progesterone)
In primigravid patients between the 7th and 12th week of gestation, the trial had the following objective: • evaluating whether the administration of 10mg ALA vaginally is associated with the reduction of the number of spontaneous abortions.
Reduction or disappearance of symptoms related to the risk of spontaneous abortion after therapy
as §1, with “•” for “• Absence of the fetus •”
The women enrolled to be treated with ALA or progesterone were randomized into 2 groups: • 60 were administered with vaginal capsules containing 10 mg ALA 1 per day until resolution of the clinical condition • 60 were administered with vaginal capsules containing 400 mg progesterone daily.
as §2

[3] = test system: primigravid patients with subchorionic hematoma; assay: Randomized clinical trial, vaginal capsules of example 4 (10 mg ALA) vs. progesterone and untreated controls: reabsorption of subchorionic hematoma, pelvic pain, vaginal bleeding, abortions; format: in vivo, women; conditions: number of abortions per group (27 patients each); ALA p ≤ 0.05 vs progesterone and control groups
[4] = test system: fragments of amniochorial membranes; conditions: pre-treatment with ALA; cited from earlier work

SMILES | Pel. pain, 2nd visit [1] [%] | Vaginal bleeding, 2nd visit [1] [%] | Pel. pain, visit upon enrolment [1] [%] | Vaginal bleeding, visit upon enrolment [1] [%] | Improvement (%) mean ± st. error (resorption of the subchorionic hematoma) [1] [%] | Abortion [2] [%] | Absence of symptoms [2] [%] | Spontaneous abortions [3] | release of MMP9 and cytokine-induced prostaglandin E2 [4] | weakening of membranes induced by TNF [4]
O=C(O)CCCCC1CCSS1 (stereo not drawn) [ALA, α-lipoic acid] | 0 | 0 | 100 | 54 | 83.9 ± 3.9 | 15 | 85 | 3 | able to inhibit | able to inhibit
CC(=O)[C@H]1CC[C@H]2[C@@H]3CCC4=CC(=O)CC[C@]4(C)[C@H]3CC[C@]12C [Progesterone, reference compound] | 14 | 0 | 100 | 57 | 49.7 ± 2.7 | 25 | 75 | 6 | – | –
